Measured values: patent US20140081017A1, “Histone Deacetylase Inhibitors for Enhancing Activity of Antifungal Agents” (METHYLGENE INC., priority 2012, published 2014)
In brackets after ≈: the same amount, converted by molar mass. Read-outs that look alike come from different tables or passages of the source.

Legend:
Candida parapsilosis [1] = conditions: range not explained, cited from earlier work
Candida parapsilosis [2] = assay: Minimal Inhibitory Concentration (MIC) assay, broth microdilution per CLSI; type: cell-based; conditions: Lodderomyces parapsilosis, read-out: Minimum Inhibitory Concentrations against Yeast Isolates, Candida parapsilosis;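 also: two read times 24 hr and 48 hr of incubation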
How it was run: (§1)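 Read-out is visual: MIC is the lowest compound concentration preventing visible growth after approximately 24-48 hr at 35° C. Testing used CLSI microdilution in MOPS-buffered RPMI (pH 7.0) with serial 1:1 compound dilutions made in DMSO.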

Candida glabrata = assay: as above; type: cell-based; conditions: Nakaseomyces glabratus, read-out: Minimum Inhibitory Concentrations against Yeast Isolates, Candida glabrata;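 also: two read times 24 hr and 48 hr of incubation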
How it was run: as §1

Candida albicans [3] = assay: as above; type: cell-based; conditions: Candida albicans, read-out: Minimum Inhibitory Concentrations against Yeast Isolates, Candida albicans
How it was run: as §1

C. glabrata [4] = assay: Checkerboard FIC assay in combination with fluconazole (MIC alone and in combination, FICI); type: cell-based, Candida glabrata; conditions: for FICI of combination resulting in fluconazole MIC of: 2 ug/mL / FICI of combination resulting in fluconazole MIC of: 4 ug/mL / FICI of combination resulting in fluconazole MIC of: 8 ug/mL: FICI calculated using a fluconazole MIC of 16 μg/mL; for FICI of combination resulting in fluconazole MIC of: 2 ug/mL (value in parenthesis) / FICI of combination resulting in fluconazole MIC of: 4 ug/mL (value in parenthesis) / FICI of combination resulting in fluconazole MIC of: 8 ug/mL (value in parenthesis): FICI using a fluconazole MIC of 128 μg/mL; for MIC: Nakaseomyces glabratus; for Multiple of compound MIC to synergize fluconazole MIC to 2 ug/mL / Multiple of compound MIC to synergize fluconazole MIC to 4 ug/mL / Multiple of compound MIC to synergize fluconazole MIC to 8 ug/mL: concentration in combination as multiple of the compound's MIC alone; for Multiple of compound MIC to synergize fluconazole MIC to 2 ug/mL: fluconazole MIC 2 ug/mL; for Multiple of compound MIC to synergize fluconazole MIC to 4 ug/mL: fluconazole MIC 4 ug/mL; for Multiple of compound MIC to synergize fluconazole MIC to 8 ug/mL: fluconazole MIC 8 ug/mL; for Concentration of Methylgene compound to synergize fluconazole MIC to 2 ug/mL / Concentration of Methylgene compound to synergize fluconazole MIC to 4 ug/mL / Concentration of Methylgene compound to synergize fluconazole MIC to 8 ug/mL: in combination with fluconazole; for Concentration of Methylgene compound to synergize fluconazole MIC to 2 ug/mL: fluconazole MIC lowered to 2 ug/mL; for Concentration of Methylgene compound to synergize fluconazole MIC to 4 ug/mL: fluconazole MIC lowered to 4 ug/mL; for Concentration of Methylgene compound to synergize fluconazole MIC to 8 ug/mL: fluconazole MIC lowered to 8 ug/mL
How it was run: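 C. glabrata was tested by CLSI broth microdilution checkerboard, crossing 2-fold dilutions of compound with 2-fold dilutions of fluconazole. The medium was RPMI with 0.165 M MOPS at pH 7.0, inoculated from a 0.5 McFarland suspension diluted 1:100, then incubated about 48 h at 35 °C. Single-agent MICs gave the FIC and FICI values.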

Candida albicans [5] = conditions: 48 hr; range not explained; cited from earlier work
C. glabrata [6] = conditions: based on a prior study / previously observed; cited from earlier work
[7] = 24 hr reading (first value of cell 24 hr/48 hr)
[8] = 48 hr reading (second value of cell 24 hr/48 hr)
[9] = MIC of the example compound alone against C. glabrata in the checkerboard assay, approximately 48 hr, read-out: Methylgene MIC
[10] = test compound alone, C. glabrata, approx. 48 hr at 35° C., read-out: Compound MIC
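For Minimum Inhibitory Concentrations against Yeast Isolates, Candida albicans in this document: two read times 24 hr and 48 hr of incubation.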

Structure (SMILES)	MIC (Candida parapsilosis [2]; [7]) [µg/mL]	MIC (Candida parapsilosis [2]; [8]) [µg/mL]	MIC (Candida glabrata; [7]) [µg/mL]	MIC (Candida glabrata; [8]) [µg/mL]	MIC (Candida albicans [3]; [7]) [µg/mL]	MIC (Candida albicans [3]; [8]) [µg/mL]	FICI of combination resulting in fluconazole MIC of: 2 ug/mL (C. glabrata [4]; C. glabrata)	FICI of combination resulting in fluconazole MIC of: 4 ug/mL (C. glabrata [4]; C. glabrata)	FICI of combination resulting in fluconazole MIC of: 8 ug/mL (C. glabrata [4]; C. glabrata)	FICI of combination resulting in fluconazole MIC of: 2 ug/mL (value in parenthesis) (C. glabrata [4]; C. glabrata)	FICI of combination resulting in fluconazole MIC of: 4 ug/mL (value in parenthesis) (C. glabrata [4]; C. glabrata)	FICI of combination resulting in fluconazole MIC of: 8 ug/mL (value in parenthesis) (C. glabrata [4]; C. glabrata)	MIC (C. glabrata [4]; [9]) [µg/mL]	MIC (C. glabrata [4]; [10]) [µg/mL]	Multiple of compound MIC to synergize fluconazole MIC to 2 ug/mL (C. glabrata [4])	Multiple of compound MIC to synergize fluconazole MIC to 4 ug/mL (C. glabrata [4])	Multiple of compound MIC to synergize fluconazole MIC to 8 ug/mL (C. glabrata [4])	Concentration of Methylgene compound to synergize fluconazole MIC to 2 ug/mL (C. glabrata [4]; C. glabrata) [µg/mL]	Concentration of Methylgene compound to synergize fluconazole MIC to 4 ug/mL (C. glabrata [4]; C. glabrata) [µg/mL]	Concentration of Methylgene compound to synergize fluconazole MIC to 8 ug/mL (C. glabrata [4]; C. glabrata) [µg/mL]	other results
CC[C@H](C)C[C@H](C)CCCCCCCCC(=O)N[C@H]1C[C@@H](O)[C@@H](NCCN)NC(=O)[C@@H]2[C@@H](O)CCN2C(=O)[C@H]([C@H](O)CCN)NC(=O)[C@H]([C@H](O)[C@@H](O)c2ccc(O)cc2)NC(=O)[C@@H]2C[C@@H](O)CN2C(=O)[C@H]([C@@H](C)O)NC1=O [Caspofungin, reference compound]	0.5 (≈ 0.457 µM)	0.5 (≈ 0.457 µM)	0.12 (≈ 0.11 µM)	0.12 (≈ 0.11 µM)	0.06 (≈ 0.0549 µM)	0.06 (≈ 0.0549 µM)	–	–	–	–	–	–	–	–	–	–	–	–	–	–	MIC range in parentheses below the comparator's MIC, Candida parapsilosis (Candida parapsilosis [1]; 24 hr): 0.25 to 1 µg/mL
CC(C)(C(=O)NO)c1ccc(CCCCc2ccccc2)cc1 [Example 56, N-hydroxy-2-methyl-2-(4-(4-phenylbutyl)phenyl)propanamide]	> 2	> 2	0.25 (≈ 0.803 µM)	0.5 (≈ 1.61 µM)	> 2	> 2	0.563	0.625	0.490	0.516	0.531	0.303	0.5	0.5	(½x)	(½x)	(¼x)	0.25	0.25	0.12	–
O=C(Cc1ccc(CCC(O)Cc2ccccc2)cc1)NO (stereo not drawn) [Example 57, N-hydroxy-2-(4-(3-hydroxy-4-phenylbutyl)phenyl)acetamide]	> 64	> 64	16 (≈ 53.4 µM)	> 64	> 64	> 64	0.563	0.625	0.500	0.516	0.531	0.313	> 16	> 16	–	–	–	16	16	8	–
CC(C(=O)NO)c1ccc(CCC(O)Cc2ccccc2)cc1 (stereo not drawn) [Example 58, N-hydroxy-2-(4-(3-hydroxy-4-phenylbutyl)phenyl)propanamide]	> 64	> 64	8 (≈ 25.5 µM)	64 (≈ 204 µM)	> 64	> 64	0.188	0.250	0.375	0.141	0.156	0.188	> 16	> 16	–	–	–	4	4	4	–
O=C(Cc1ccc(C(O)CCCc2ccccc2)cc1)NO (stereo not drawn) [Example 59, N-hydroxy-2-(4-(1-hydroxy-4-phenylbutyl)phenyl)acetamide]	> 64	> 64	16 (≈ 53.4 µM)	64 (≈ 214 µM)	> 64	> 64	0.313	0.375	0.375	0.266	0.281	0.188	> 16	> 16	–	–	–	8	8	4	–
O=C(Cc1ccc(CCC(F)Cc2ccccc2)cc1)NO (stereo not drawn) [Example 60, 2-(4-(3-fluoro-4-phenylbutyl)phenyl)-N-hydroxyacetamide]	4 (≈ 13.3 µM)	8 (≈ 26.5 µM)	2 (≈ 6.64 µM)	2 (≈ 6.64 µM)	4 (≈ 13.3 µM)	4 (≈ 13.3 µM)	0.563	0.625	0.500	0.516	0.531	0.313	2	2	(½x)	(½x)	(¼x)	1	1	0.5	–
O=C(Cc1ccc(C(F)CCCc2ccccc2)cc1)NO (stereo not drawn) [Example 61, 2-(4-(1-fluoro-4-phenylbutyl)phenyl)-N-hydroxyacetamide]	8 (≈ 26.5 µM)	16 (≈ 53.1 µM)	2 (≈ 6.64 µM)	4 (≈ 13.3 µM)	4 (≈ 13.3 µM)	8 (≈ 26.5 µM)	0.313	0.375	0.375	0.266	0.281	0.188	4	4	(¼x)	(¼x)	(⅛x)	1	1	0.5	–
OC(Cn1cncn1)(Cn1cncn1)c1ccc(F)cc1F [Fluconazole, reference compound]	2 (≈ 6.53 µM)	4 (≈ 13.1 µM)	4 (≈ 13.1 µM)	8 (≈ 26.1 µM)	0.25 (≈ 0.816 µM)	1 (≈ 3.27 µM)	–	–	–	–	–	–	–	–	–	–	–	–	–	–	MIC range in parentheses below the comparator's MIC, Candida parapsilosis (Candida parapsilosis [1]; 24 hr): 0.5 to 4 µg/mL; MIC range in parentheses below the comparator's MIC, Candida parapsilosis (Candida parapsilosis [1]; 48 hr): 1 to 4 µg/mL; MIC (C. glabrata [4]; C. glabrata, this study, checkerboard assay, read-out: MIC of fluconazole alone against both test isolates): > 8 µg/mL; MIC range in parentheses below the comparator's MIC, Candida albicans (Candida albicans [5]): (NA/0.25-1) ug/mL; MIC of fluconazole alone against both test isolates (C. glabrata [6]): > 64 µg/mL
